We go through 11 compounds from patent US11208400B2, “Substituted 6-(1H-pyrazol-1-yl)pyrimidin-4-amine derivatives and uses thereof” (Bayer Aktiengesellschaft, priority 2016, dated 2021).

The structures appear in SMILES notation.

The assay concerns the target T1, human Npt2a (Homo sapiens, UniProt Q06495).
T1 construct: expressed in transfected cells
T1 sequence (Q06495 1-639): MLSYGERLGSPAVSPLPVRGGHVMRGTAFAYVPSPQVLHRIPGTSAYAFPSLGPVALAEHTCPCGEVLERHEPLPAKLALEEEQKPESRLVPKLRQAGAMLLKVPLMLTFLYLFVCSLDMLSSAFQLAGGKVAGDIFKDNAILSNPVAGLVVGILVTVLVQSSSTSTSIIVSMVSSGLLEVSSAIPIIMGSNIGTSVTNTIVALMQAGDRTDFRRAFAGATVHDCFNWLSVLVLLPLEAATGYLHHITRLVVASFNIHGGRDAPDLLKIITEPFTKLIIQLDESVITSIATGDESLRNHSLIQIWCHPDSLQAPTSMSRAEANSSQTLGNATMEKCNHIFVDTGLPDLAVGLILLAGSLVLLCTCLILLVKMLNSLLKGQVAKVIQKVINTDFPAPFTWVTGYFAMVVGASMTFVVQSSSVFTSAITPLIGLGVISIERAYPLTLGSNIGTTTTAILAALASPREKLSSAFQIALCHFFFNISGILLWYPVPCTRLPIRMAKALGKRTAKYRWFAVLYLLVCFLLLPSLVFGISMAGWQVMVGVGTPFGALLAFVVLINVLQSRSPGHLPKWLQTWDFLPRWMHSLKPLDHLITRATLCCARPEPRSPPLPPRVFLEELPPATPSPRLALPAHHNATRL
Briefly: Npt2a activity cell based assay, membrane potential dye, CHO T-REx hNpt2a cells. As to conditions: doxycycline-induced, depolarization by sodium phosphate influx, average or median values if tested more than once. In outline: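 Doxycycline-induced (0.5 μg/mL, 24 h) CHO T-REx cells were loaded with membrane potential dye in sodium-free NHE buffer (pH 7.4) and exposed to compound (50 μM–1 nM, 5 min, room temperature).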
In general, IC50 refers to the concentration at which inhibition is half-maximal. A higher IC50 goes with a need for much substance. The compound `COCCn1nc(-c2ccc(C(F)F)cc2)c(C)c1Nc1cc(-n2nc(C)c(OC)c2C)ncn1` [Example 539, N-{3-[4-(difluoromethyl)phenyl]-1-(2-methoxyethyl)-4-methyl-1H-pyrazol-5-yl}-6-(4-methoxy-3,5-dimethyl-1H-pyrazol-1-yl)pyrimidin-4-amine] showed a concentration for half-maximal inhibition (IC50) of 20 nM.

Take `COc1c(Nc2cc(-n3nc(C)c(Cl)c3C)ncn2)nn(C)c1-c1ccc(C#N)cc1` [Example 540, 4-(3-{[6-(4-chloro-3,5-dimethyl-1H-pyrazol-1-yl)pyrimidin-4-yl]amino}-4-methoxy-1-methyl-1H-pyrazol-5-yl)benzonitrile]: it took 17 nM to reach half-maximal inhibition (IC50). This IC50 and that of the compound before are within 1.5-fold of each other.

Compound `COc1c(Nc2cc(-n3nc(C)c(C(F)(F)F)c3C)ncn2)nn(C)c1-c1ccc(C#N)cc1` [Example 541, 4-[3-({6-[3,5-dimethyl-4-(trifluoromethyl)-1H-pyrazol-1-yl]pyrimidin-4-yl}amino)-4-methoxy-1-methyl-1H-pyrazol-5-yl]benzonitrile] yielded an IC50 of 260 nM.

With `COCCn1nc(-c2ccc(F)cn2)c(C)c1Nc1cc(-n2nc(C)cc2C)ncn1` [Example 542, 6-(3,5-dimethyl-1H-pyrazol-1-yl)-N-[3-(5-fluoropyridin-2-yl)-1-(2-methoxyethyl)-4-methyl-1H-pyrazol-5-yl]pyrimidin-4-amine], the half-inhibitory concentration (IC50) came to 28 nM.

The compound `COCCn1nc(-c2ccc(F)cn2)c(C)c1Nc1cc(-n2nc(C)cc2C(F)F)ncn1` [Example 543, 6-[5-(difluoromethyl)-3-methyl-1H-pyrazol-1-yl]-N-[3-(5-fluoropyridin-2-yl)-1-(2-methoxyethyl)-4-methyl-1H-pyrazol-5-yl]pyrimidin-4-amine] gave an IC50 of 480 nM. This IC50 is about 17-fold higher than that of the compound before.

In turn, `COCCn1nc(-c2ccc(F)cn2)c(C)c1Nc1cc(-n2nc(C)c(OC)c2C)ncn1` [Example 544, N-[3-(5-fluoropyridin-2-yl)-1-(2-methoxyethyl)-4-methyl-1H-pyrazol-5-yl]-6-(4-methoxy-3,5-dimethyl-1H-pyrazol-1-yl)pyrimidin-4-amine] returned a half-maximal inhibitory concentration (IC50) of 11 nM.

`CCOC(=O)c1c(C)nn(-c2cc(Nc3c(C)c(-c4ccc(F)cn4)nn3CCOC)ncn2)c1C` [Example 545, ethyl 1-(6-{[3-(5-fluoropyridin-2-yl)-1-(2-methoxyethyl)-4-methyl-1H-pyrazol-5-yl]amino}pyrimidin-4-yl)-3,5-dimethyl-1H-pyrazole-4-carboxylate] displayed an IC50 of 14 nM.

`CCOC(=O)c1c(C)nn(-c2cc(Nc3c(C)c(-c4ccc(C(F)F)cc4)nn3CCOC)ncn2)c1C` [Example 546, ethyl 1-[6-({3-[4-(difluoromethyl)phenyl]-1-(2-methoxyethyl)-4-methyl-1H-pyrazol-5-yl}amino)pyrimidin-4-yl]-3,5-dimethyl-1H-pyrazole-4-carboxylate] had a half-inhibitory concentration (IC50) of 14 nM.

Compound `Cc1nn(-c2cc(Nc3c(C)c(-c4ccc(C#N)cc4)nn3C)ncn2)c(C)c1C(F)(F)F` [Example 547, 4-[5-({6-[3,5-dimethyl-4-(trifluoromethyl)-1H-pyrazol-1-yl]pyrimidin-4-yl}amino)-1,4-dimethyl-1H-pyrazol-3-yl]benzonitrile] registered a half-inhibitory concentration (IC50) of 29 nM.

As for `Cc1cc(C(F)F)n(-c2cc(Nc3c(C)c(-c4ccc(C(F)(F)F)nc4)nn3C)ncn2)n1` [Example 548, 6-[5-(difluoromethyl)-3-methyl-1H-pyrazol-1-yl]-N-{1,4-dimethyl-3-[6-(trifluoromethyl)pyridin-3-yl]-1H-pyrazol-5-yl}pyrimidin-4-amine], the 50% inhibitory concentration (IC50) is 790 nM. This IC50 is about 27-fold higher than that of the compound before.

As for `Cc1cc(C)n(-c2cc(Nc3c(C)c(-c4ccc(C(F)(F)F)nc4)nn3C)ncn2)n1` [Example 549, 6-(3,5-dimethyl-H-pyrazol-1-yl)-N-{1,4-dimethyl-3-[6-(trifluoromethyl)pyridin-3-yl]-1H-pyrazol-5-yl}pyrimidin-4-amine], the concentration for half-maximal inhibition (IC50) came to 2600 nM.
